From ChEMBL document CHEMBL1135488, “Prediction of volume of distribution values in humans for neutral and basic drugs using physicochemical measurements and plasma protein binding data” (J Med Chem, 2002)

Assays:
[1] = pH 7.4
[2] = in vitro; settings: human, plasma
[3] = clinical; settings: human, in vivo, iv
[4] = in vitro
[5] = Ionisation constant (pKa); type: physicochemical

Row | Compound | Fraction ionised [1] | fraction unbound [2] | Vd [3] [L/kg] | fraction unbound ([4]; tissues) | pKa [5] | fraction unbound [4]
1 | CNS(=O)(=O)Cc1ccc2[nH]cc(CCN(C)C)c2c1 | 0.992 | […] | 0.65 | 0.661 | 9.5 | –
2 | O=C1Nc2ccc(Cl)cc2C(c2ccccc2Cl)=NC1O (racemic) [LORAZEPAM] | 0 | – | 1.3 | 0.029 | – | –
3 | COc1ccc2[nH]c([S+]([O-])Cc3ncc(C)c(OC)c3C)nc2c1 (racemic) [OMEPRAZOLE] | 0 | – | 0.34 | 0.082 | Not Active | –
4 | CCCC(=O)Nc1ccc(OCC(O)CNC(C)C)c(C(C)=O)c1 (configuration not stated) [ACEBUTOLOL] | 0.995 | – | 1.2 | 0.273 | – | –
5 | Oc1ncnc2[nH]ncc12 [ALLOPURINOL] | 0 | 0.95 | 0.6 | 0.881 | Not Active | –
6 | Cc1nnc2n1-c1ccc(Cl)cc1C(c1ccccc1)=NC2 [ALPRAZOLAM] | 0 | – | 0.72 | 0.881 | – | –
7 | C=CCc1ccccc1OCC(O)CNC(C)C (configuration not stated) [ALPRENOLOL] | 0.992 | 0.24 | 3.4 | 0.028 | – | –
8 | CCCCc1oc2ccccc2c1C(=O)c1cc(I)c(OCCN(CC)CC)c(I)c1 [AMIODARONE] | 0.955 | – | – | – | – | –
9 | Cc1cc(=O)n(-c2ccccc2)n1C [ANTIPYRINE] | 0 | – | 0.6 | 0.825 | Not Active | –
10 | CN1[C@@H]2CC[C@H]1C[C@@H](OC(=O)C(CO)c1ccccc1)C2 (some centres not stated) [ATROPINE] | 0.996 | – | – | – | – | –
11 | O=C1CN=C(c2ccccn2)c2cc(Br)ccc2N1 [BROMAZEPAM] | 0 | 0.3 | 0.91 | 0.146 | Not Active | –
12 | Cn1c(=O)c2c(ncn2C)n(C)c1=O [CAFFEINE] | 0 | – | 0.61 | 0.543 | – | –
13 | O=C(N[C@H](CO)[C@H](O)c1ccc([N+](=O)[O-])cc1)C(Cl)Cl [CHLORAMPHENICOL] | 0 | 0.47 | 0.94 | 0.225 | – | –
14 | CN(C)CCC(c1ccc(Cl)cc1)c1ccccn1 (configuration not stated) [CHLORPHENIRAMINE] | 0.986 | 0.3 | 3.2 | – | – | 0.037
15 | CN(C)CCCN1c2ccccc2Sc2ccc(Cl)cc21 [CHLORPROMAZINE] | 0.986 | 0.03 | 21 | – | – | 0.001
16 | CN/C(=N/CCSCc1nc[nH]c1C)NC#N [CIMETIDINE] | 0.271 | 0.81 | 1 | – | 6.97 | 0.374
17 | Clc1cccc(Cl)c1N=C1NCCN1 [CLONIDINE] | 0.817 | 0.8 | 2.1 | – | – | 0.158
18 | CN1CCN(C2=Nc3cc(Cl)ccc3Nc3ccccc32)CC1 [CLOZAPINE] | 0.629 | – | 5.4 | – | – | 0.004
19 | COC(=O)[C@H]1[C@@H](OC(=O)c2ccccc2)C[C@@H]2CC[C@H]1N2C [COCAINE] | 0.952 | 0.09 | 2 | 0.018 | – | –
20 | CNCCCN1c2ccccc2CCc2ccccc21 [DESIPRAMINE] | 0.999 | – | 20 | – | – | 0.003
21 | C[C@@H]1C[C@H]2[C@@H]3CCC4=CC(=O)C=C[C@]4(C)[C@@]3(F)[C@@H](O)C[C@]2(C)[C@@]1(O)C(=O)CO [DEXAMETHASONE] | 0 | – | – | – | – | 0.182
22 | CN1C(=O)CN=C(c2ccccc2)c2cc(Cl)ccc21 [DIAZEPAM] | 0 | – | – | – | – | –
23 | COc1ccc([C@@H]2Sc3ccccc3N(CCN(C)C)C(=O)[C@@H]2OC(C)=O)cc1 [DILTIAZEM] | 0.82 | – | 3.1 | 0.028 | – | –
24 | CN(C)CCOC(c1ccccc1)c1ccccc1 [DIPHENHYDRAMINE] | 0.98 | – | – | – | – | –

Row | Compound | Fraction ionised [1] | fraction unbound [2] | Vd [3] [L/kg] | fraction unbound ([4]; tissues) | pKa [5] | fraction unbound [4]
25 | C[C@]12CC[C@@H]3c4ccc(O)cc4CC[C@H]3[C@@H]1CC[C@@H]2O [ESTRADIOL] | 0 | 0.015 | 1.2 | 0.005 | – | –
26 | O=C(NCC1CCCCN1)c1cc(OCC(F)(F)F)ccc1OCC(F)(F)F (configuration not stated) [FLECAINIDE] | 0.988 | 0.39 | 4.9 | 0.031 | – | –
27 | OC(Cn1cncn1)(Cn1cncn1)c1ccc(F)cc1F [FLUCONAZOLE] | 0 | – | 0.6 | 0.814 | Not Active | –
28 | O=C(CCCN1CCC(O)(c2ccc(Cl)cc2)CC1)c1ccc(F)cc1 [HALOPERIDOL] | 0.947 | – | 18 | – | – | 0.002
29 | CN(C)CCCN1c2ccccc2CCc2ccccc21 [IMIPRAMINE] | 0.992 | – | 18 | 0.002 | – | –
30 | CCN(CC)CC(=O)Nc1c(C)cccc1C [LIDOCAINE] | 0.776 | – | – | – | – | –
31 | CN1C(=O)C(O)N=C(c2ccccc2Cl)c2cc(Cl)ccc21 (configuration not stated) [LORMETAZEPAM] | 0 | – | 6.8 | 0.007 | – | –
32 | CCN(CC)CCNC(=O)c1cc(Cl)c(N)cc1OC [METOCLOPRAMIDE] | 0.988 | – | 3.4 | – | – | 0.07
33 | COCCc1ccc(OCC(O)CNC(C)C)cc1 (configuration not stated) [METOPROLOL] | 0.995 | […] | 4.2 | – | – | 0.084
34 | Cc1cccc(C)c1OCC(C)N (configuration not stated) [MEXILETINE] | 0.981 | 0.37 | 4.9 | – | – | 0.03
35 | CN1CC[C@]23c4c5ccc(O)c4O[C@H]2[C@@H](O)C=C[C@H]3[C@H]1C5 [MORPHINE] | 0.858 | – | – | – | – | –
36 | COC(=O)C1=C(C)NC(C)=C(C(=O)OC)C1c1ccccc1[N+](=O)[O-] [NIFEDIPINE] | – | – | 0.78 | – | – | 0.023
37 | CC(=O)CCCCn1c(=O)c2c(ncn2C)n(C)c1=O [PENTOXIFYLLINE] | 0 | 1 | 4.2 | 0.095 | – | –
38 | C[C@]12C=CC(=O)C=C1CC[C@@H]1[C@@H]2[C@@H](O)C[C@@]2(C)[C@H]1CC[C@]2(O)C(=O)CO [PREDNISOLONE] | 0 | 0.075 | 1.5 | – | – | 0.021
39 | C[C@]12C=CC(=O)C=C1CC[C@@H]1[C@@H]2C(=O)C[C@@]2(C)[C@H]1CC[C@]2(O)C(=O)CO [PREDNISONE] | 0 | 0.25 | 0.97 | 0.113 | – | –
40 | CCN(CC)CCNC(=O)c1ccc(N)cc1 [PROCAINAMIDE] | 0.986 | – | – | – | – | –
41 | CCCNCC(O)COc1ccccc1C(=O)CCc1ccccc1 (configuration not stated) [PROPAFENONE] | 0.987 | – | – | – | – | –
42 | CC(C)NCC(O)COc1cccc2ccccc12 (configuration not stated) [PROPRANOLOL] | 0.991 | – | 4.3 | – | – | 0.012
43 | C=C[C@H]1C[N@@]2CC[C@H]1C[C@@H]2[C@@H](O)c1ccnc2ccc(OC)cc12 [QUINIDINE] | 0.817 | – | – | 0.019 | – | –
44 | CNC(=C[N+](=O)[O-])NCCSCc1ccc(CN(C)C)o1 [RANITIDINE] | 0.922 | – | 1.3 | 0.289 | 8.47 | –
45 | Cc1nc2n(c(=O)c1CCN1CCC(c3noc4cc(F)ccc34)CC1)CCCC2 [RISPERIDONE] | 0.764 | – | – | – | – | 0.042
46 | CC(C)(C)NCC(O)c1cc(O)cc(O)c1 (configuration not stated) [TERBUTALINE] | 0.952 | – | 1.8 | 0.187 | – | –
47 | COc1cc(Cc2cnc(N)nc2N)cc(OC)c1OC [TRIMETHOPRIM] | 0.319 | 0.63 | 1.6 | – | – | 0.166
